The values below come from paper PMC10644346, “Shotgun Kinetic Target-Guided Synthesis Approach Enables the Discovery of Small-Molecule Inhibitors against Pathogenic Free-Living Amoeba Glucokinases” (ACS Infectious Diseases, 2023).

The test system of assay [1] is N. fowleri. On the set-up: method as in PMID 30783001. The conditions noted are these: media containing the glycolytic inhibitor; cited from earlier work.
Assay [2] concerns the target T1, NfGlck (Naegleria fowleri glucokinase) (Naegleria fowleri, UniProt A0A384E136). Also noted: method as in PMID 35604214. The conditions noted are these: cited from earlier work; for selectivity over the human variant (HsGlck): NfGlck vs HsGlck; for NfGlck IC50: previously identified NfGlck inhibitors.
Assay [3] has as its target T2, AcGlck (Acanthamoeba castellanii glucokinase) (Acanthamoeba castellanii, UniProt L8GT25). Also noted: method as in PMID 35604214. Particulars: cited from earlier work.
Assay [4] deals with T3, BmGlck (Balamuthia mandrillaris glucokinase) (Balamuthia mandrillaris, UniProt Z9NIO0WF95). On the set-up: method as in PMID 35604214. The conditions noted are these: cited from earlier work.
For assay [5], the target named is T3, BmGlck (Balamuthia mandrillaris glucokinase). The experiment in a line: Glucokinase assay (G6PDH-coupled reaction, absorbance at 340 nm), BmGlck. The assay is classed as biochemical. Particulars: 10 nM enzyme, 15 min preincubation, pH 8, triplicate. How it is done: (§1) The open reading frames of NfGlck, AcGlck, and BmGlck were cloned into pQE30, transformed into M15(pREP) Escherichia coli (Qiagen, Valencia, CA), and expressed as previously described.[48],[54] Briefly, E. coli M15(pREP4) harboring pQE30 constructs were inoculated and grown to an optical density at 600 nm (OD600) of ∼0.6 prior to induction with 500 μM isopropyl β-D-1-thiogalactopyranoside (IPTG). Protein from bacterial lysate was purified by nickel column chromatography (HisTrap FF; GE Healthcare Life Sciences, Pittsburgh, PA) followed by ion-exchange chromatography (HiTrap Q XL; GE Healthcare Life Sciences, Pittsburgh, PA). Protein was typically stored in 25 mM HEPES–Na (pH 7.4), 150 mM NaCl, and 50% glycerol after protein concentrations were determined by using a Bradford assay with bovine serum albumin (BSA) as a standard.
(§2) Enzyme activities were measured in triplicate using a coupled reaction described previously.[54] In a clear 96-well plate, enzyme (HsGlck, NfGlck, AcGlck, or BmGlck, all at 10 nM) was incubated with potential inhibitors (in DMSO) in their optimized assay buffer for 15 min at room temperature. For HsGlck and NfGlck, the assay buffer contained 50 mM TEA and 3.3 mM MgCl2, pH 7.4. For AcGlck and BmGlck, the assay buffer contained 50 mM Tris-HCl and 3.3 mM MgCl2, pH 8. Substrate buffer (425 μM glucose, 2.5 mM ATP, 1 U/mL G6PDH, and 0.75 mM NADP^+) was added to each well to start the reaction for a total reaction volume of 200 μL. Immediately after addition, absorbance was measured at 340 nm at 15 s intervals for 2 min by using a BioTek Synergy H1 microplate reader (BioTek, Winooski, VT). Dose–response analysis and IC50 values were performed by using Prism 9.0 (GraphPad software, San Diego, CA). As a control, enzyme activity in inhibitor solvent (DMSO) was included in every assay. To solve the mode of inhibition, NfGlck activity was measured with increasing substrate concentrations (0–1.25 mM) of glucose in the presence or absence of different inhibitor concentrations (0–10 μM) in technical triplicates. Data were then analyzed, and statistical analyses were performed by extra sum-of-squares F test to compare two models of inhibition. […] All statistical analyses were performed using Prism 9 software.

In assay [6] the target is T4, HsGlck (human glucokinase) (Homo sapiens, UniProt P35557).
T4 sequence (P35557 1-465): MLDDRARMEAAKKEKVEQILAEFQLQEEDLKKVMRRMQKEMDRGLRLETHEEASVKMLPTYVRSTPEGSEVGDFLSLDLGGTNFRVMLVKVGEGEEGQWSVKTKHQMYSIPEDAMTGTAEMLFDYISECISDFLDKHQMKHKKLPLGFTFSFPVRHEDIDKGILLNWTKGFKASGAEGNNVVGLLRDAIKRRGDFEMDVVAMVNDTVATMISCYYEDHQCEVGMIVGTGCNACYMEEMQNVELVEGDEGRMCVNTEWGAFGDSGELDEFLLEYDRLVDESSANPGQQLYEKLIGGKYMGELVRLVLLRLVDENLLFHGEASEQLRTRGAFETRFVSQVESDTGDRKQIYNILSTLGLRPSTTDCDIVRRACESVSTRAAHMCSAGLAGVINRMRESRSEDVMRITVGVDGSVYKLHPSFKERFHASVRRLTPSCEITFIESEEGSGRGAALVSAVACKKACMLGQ
The experiment in a line: Glucokinase assay (G6PDH-coupled reaction, absorbance at 340 nm), HsGlck. The format is biochemical. Particulars: 10 nM enzyme, 15 min preincubation, pH 7.4, triplicate. How it is done:
as §2

Assay [7] has as its target T2, AcGlck (Acanthamoeba castellanii glucokinase). The experiment in a line: Glucokinase assay (G6PDH-coupled reaction, absorbance at 340 nm), AcGlck. The format is biochemical. The conditions noted are these: 10 nM enzyme, 15 min preincubation, pH 8, triplicate. The protocol: as §1, §2
The target in assay [8] is T1, NfGlck (Naegleria fowleri glucokinase). Put plainly: Glucokinase assay (G6PDH-coupled reaction, absorbance at 340 nm), NfGlck. The conditions noted are these: for IC50: 10 nM enzyme, 15 min preincubation, pH 7.4, triplicate. The assay is classed as biochemical. How it is done:
as §1, §2

As a reminder, the IC50 is the midpoint of a concentration-inhibition curve.

T1 sequence (A0A384E136 entry or part of it): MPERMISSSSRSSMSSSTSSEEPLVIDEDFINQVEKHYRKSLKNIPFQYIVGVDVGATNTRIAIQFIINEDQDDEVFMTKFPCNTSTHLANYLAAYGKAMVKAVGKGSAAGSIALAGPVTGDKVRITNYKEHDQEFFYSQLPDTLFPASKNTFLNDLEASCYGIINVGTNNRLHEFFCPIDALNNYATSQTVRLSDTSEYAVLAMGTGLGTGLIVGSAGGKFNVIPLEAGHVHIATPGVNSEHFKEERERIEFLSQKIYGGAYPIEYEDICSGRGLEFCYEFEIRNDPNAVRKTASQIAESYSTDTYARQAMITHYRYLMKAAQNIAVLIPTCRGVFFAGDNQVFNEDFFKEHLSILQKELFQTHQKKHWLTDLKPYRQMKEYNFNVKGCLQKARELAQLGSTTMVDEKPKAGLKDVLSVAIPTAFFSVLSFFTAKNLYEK
T2 sequence (L8GT25 entry or part of it): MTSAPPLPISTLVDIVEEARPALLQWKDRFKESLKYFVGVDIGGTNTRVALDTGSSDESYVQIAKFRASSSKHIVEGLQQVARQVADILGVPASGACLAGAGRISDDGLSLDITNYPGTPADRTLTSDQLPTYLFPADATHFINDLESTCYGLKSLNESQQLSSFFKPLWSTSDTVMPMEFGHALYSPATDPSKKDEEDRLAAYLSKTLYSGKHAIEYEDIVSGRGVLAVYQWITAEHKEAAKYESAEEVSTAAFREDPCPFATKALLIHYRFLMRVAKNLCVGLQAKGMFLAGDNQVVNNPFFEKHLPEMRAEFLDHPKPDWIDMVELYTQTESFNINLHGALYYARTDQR

As to `O=C(O)C(=O)CBr` [3-bromopyruvate], in assay [1], the “effect on N. fowleri cellular growth” value is “decrease in cellular growth”.
`N=C(N)Nc1ccc(-c2ccc(-c3ccc(N=C(N)N)c(Cl)c3)o2)cc1Cl` [MMV688271]: in assay [2], the “selectivity over the human variant (HsGlck)” value is recorded as “lacked significant selectivity” and the “NfGlck IC50” value was “submicromolar”. Also, the “activity against AcGlck” value in assay [3] is recorded as “not active”. In addition, the “activity against BmGlck” value in assay [4] was “not active”.
For `O=c1c2ccccc2[se]n1-c1ccccc1` [SID856002, ebselen], in assay [2], the “selectivity over the human variant (HsGlck)” value is reported as “lacked significant selectivity” and the “NfGlck IC50” value was “submicromolar”.
Regarding `COc1cc(OC)cc(C(=O)NS(=O)(=O)c2ccc(CN3CCN(c4ccccc4)CC3)cc2)c1` [SZ1TA5], the concentration for half-maximal inhibition (IC50) was greater than 10 µM in assay [5], greater than 10 µM in assay [6], 11.6 ± 9.2 µM in assay [7] and greater than 10 µM in assay [8].
Turning to `O=C(NS(=O)(=O)c1ccc(-c2ccc(C(F)(F)F)cc2)cc1)c1ccc2oc(-c3ccccc3)cc2c1` [SZ16TA41], the IC50 in assay [5] is 3 ± 0.54 µM; in assay [6] it was greater than 10 µM; in assay [7] it was greater than 10 µM; in assay [8] it was greater than 10 µM.
With `Cn1cc(C(=O)NS(=O)(=O)CCN(CSCc2ccccc2)Cc2ccc3c(c2)OCO3)c2cc(-c3ccc(S(C)(=O)=O)cc3)ccc21` [SZ28TA26], the IC50 in assay [5] is 4.77 ± 1 µM; in assay [6], greater than 10 µM; in assay [7] it was 4.35 ± 0.31 µM; in assay [8], greater than 10 µM.
Consider `O=C(NS(=O)(=O)CCN(CSCc1ccccc1)Cc1ccc2c(c1)OCO2)c1ccc2c(ccn2Cc2ccc(C(F)(F)F)cc2C(F)(F)F)c1` [SZ28TA30], for which the IC50 in assay [5] is 1.68 ± 0.05 µM; in assay [6], greater than 10 µM; in assay [7], greater than 10 µM; in assay [8], greater than 10 µM.
For `O=C(NS(=O)(=O)CCN(CSCc1ccccc1)Cc1ccc2c(c1)OCO2)c1ccc2oc(-c3ccccc3)cc2c1` [SZ28TA41], the IC50 is 7.22 ± 0.28 µM in assay [5], greater than 10 µM in assay [6], 3.09 ± 0.66 µM in assay [7] and greater than 10 µM in assay [8].
For `O=C(NS(=O)(=O)c1ccc(-c2ccc3c(c2)OCCO3)cc1)c1ccc2c(ccn2Cc2ccc(C(F)(F)F)cc2C(F)(F)F)c1` [SZ33TA30], the IC50 in assay [5] is 1.48 ± 0.13 µM; in assay [6], greater than 10 µM; in assay [7], 4.4 ± 0.4 µM; in assay [8], greater than 10 µM.
Regarding `Cn1cc(C(=O)c2cccs2)c2cc(C(=O)NS(=O)(=O)c3ccc(-c4ccc5c(c4)OCCO5)cc3)ccc21` [SZ33TA45], the concentration for half-maximal inhibition (IC50) was greater than 10 µM in assay [5], 10.6 ± 0.45 µM in assay [6], greater than 10 µM in assay [7] and 10.9 ± 2 µM in assay [8].
Consider `CCOc1ccc(-c2ccc3c(c2)c(C(=O)NS(=O)(=O)c2ccc(-c4ccc(Oc5ccccc5)cc4)cc2)cn3C)cc1F` [SZ35TA23], for which the IC50 in assay [5] is greater than 10 µM; in assay [6], greater than 10 µM; in assay [7] it was 6.9 µM; in assay [8], greater than 10 µM.
Regarding `O=C(NS(=O)(=O)c1ccc(-c2ccc(Oc3ccccc3)cc2)cc1)c1ccc2c(ccn2Cc2ccc(C(F)(F)F)cc2C(F)(F)F)c1` [SZ35TA30], the IC50 is 0.33 ± 0.05 µM in assay [5], 8.5 ± 0.37 µM in assay [6], 0.21 ± 0.04 µM in assay [7] and 1.9 ± 1.1 µM in assay [8]. The “selectivity for NfGlck over HsGlck” value in assay [8] (NfGlck vs HsGlck IC50) was “slight selectivity”.
For the compound `O=C(NS(=O)(=O)c1ccc(-c2ccc(Oc3ccccc3)cc2)cc1)c1ccc2oc(-c3ccccc3)cc2c1` [SZ35TA41], the IC50 is 1.19 ± 0.29 µM in assay [5], greater than 10 µM in assay [6], 1.6 ± 0.1 µM in assay [7] and greater than 10 µM in assay [8].
For `Cn1cc(C(=O)c2cccs2)c2cc(C(=O)NS(=O)(=O)c3ccc(-c4ccc(Oc5ccccc5)cc4)cc3)ccc21` [SZ35TA45], the IC50 in assay [5] was 1.92 ± 0.13 µM; in assay [6], greater than 10 µM; in assay [7], 3.3 ± 1.3 µM; in assay [8] it was greater than 10 µM.
`COc1ccccc1-c1ccc(C(=O)NS(=O)(=O)c2ccc(-c3cc4ccccc4s3)cc2)cc1` [SZ37TA21]: the IC50 in assay [5] is 4.83 ± 0.76 µM; in assay [6] it was greater than 10 µM; in assay [7] it was 5.1 ± 0.5 µM; in assay [8], greater than 10 µM.
